Results on one compound are retold here after patent US20210038626A1, “COMPOSITIONS COMPRISING AND METHODS OF USING INHIBITORS OF SODIUM-GLUCOSE COTRANSPORTERS 1 AND 2” (Lexicon Pharmaceuticals, Inc., priority 2011, published 2021).

Data set [1] concerns human SGLT1 / human SGLT2. As to conditions: ratio of human SGLT1 IC50 to human SGLT2 IC50. On the procedure: HEK293 cells were transfected with the human HA-SGLT2-pIRESpuro2 vector and the bulk stable cell line was selected in presence of 0.5 μg/ml of puromycin. Human HA-SGLT2 cells were maintained in DMEM media containing 10% FBS, 1% GPS and 0.5 μg/ml of puromycin.
The HEK293 cells expressing the human HA-SGLT2 were seeded in 384 well plates (30,000 cells/well) in DMEM media containing 10% FBS, 1% GPS and 0.5 μg/ml of puromycin, then incubated overnight at 37 C, 5% CO2. Cells were then washed with uptake buffer (140 mM NaCl, 2 mM KCl, 1 mM CaCl2, 1 mM MgCl2, 10 mM HEPES, 5 mM Tris, 1 mg/ml bovine serum albumin (BSA), pH 7.3). Twenty microliters of uptake buffer with or without testing compounds were added to the cells. […] After washing the cells with uptake buffer, scintillation fluid was added (40 microliters/well) and ^14C-AMG uptake was measured by counting radioactivity using a scintillation coulter (TopCoulter NXT; Packard Instruments).
Cells were then washed with uptake buffer (140 mM NaCl, 2 mM KCl, 1 mM CaCl2, 1 mM MgCl2, 10 mM HEPES, 5 mM Tris, 1 mg/ml bovine serum albumin (BSA), pH 7.3). […] After washing the cells with uptake buffer, scintillation fluid was added (40 microliters/well) and ^14C-AMG uptake was measured by counting radioactivity using a scintillation coulter (TopCoulter NXT; Packard Instruments).

In data set [2] the test system is patients with type 2 diabetes mellitus. Briefly: Phase 2a clinical trial, liquid oral dosage form once daily for 28 days. It counts as in vivo, human. On the procedure: Certain aspects of this invention may be understood with reference to the figures. FIGS. 1-10 show results obtained from a randomized, double-blind, placebo controlled Phase 2a clinical trial, wherein 150 mg and 300 mg doses of (2S,3R,4R,5S,6R)-2-(4-chloro-3-(4-ethoxybenzyl)phenyl)-6-(methylthio)tetrahydro-2H-pyran-3,4,5-triol were orally administered in solution once daily to patients with type 2 diabetes mellitus. FIG. 11 provides results obtained from a Phase 1 clinical trial, wherein both solid and liquid oral dosage forms of the compound were administered to patients with type 2 diabetes mellitus.
This invention is based, in part, on findings obtained from a randomized, double-blind, placebo controlled Phase 2a clinical trial, wherein 150 mg/day and 300 mg/day doses of a compound of the invention were orally administered in a liquid to patients with type 2 diabetes mellitus. The compound was (2S,3R,4R,5S,6R)-2-(4-chloro-3-(4-ethoxybenzyl)phenyl)-6-(methylthio)tetrahydro-2H-pyran-3,4,5-triol, which has the structure:
Patients (n=36) with type 2 diabetes mellitus received one of two oral doses of (2S,3R,4R,5S,6R)-2-(4-chloro-3-(4-ethoxybenzyl)phenyl)-6-(methylthio)tetrahydro-2H-pyran-3,4,5-triol, given as 150 mg or 300 mg once daily, or matching placebo, for 28 days in solution.
In this study, patients on metformin were taken off of the drug 16 days prior to day 0, the day dosing first began.

The test system is the same in data set [3]. Briefly: Phase 1 clinical trial comparing solid and liquid oral dosage forms, single 300 mg dose, crossover. It counts as in vivo, human. As to conditions: single doses. On the procedure: This invention is further based on findings obtained from a randomized, double-blind, placebo controlled Phase 1 clinical trial that compared liquid and solid dosage forms of the compound.
Patients (n=12) with type 2 diabetes mellitus received one of three oral formulations of 300 mg of (2S,3R,4R,5S,6R)-2-(4-chloro-3-(4-ethoxybenzyl)phenyl)-6-(methylthio)tetrahydro-2H-pyran-3,4,5-triol before breakfast: as two 150 mg tablets, six 50 mg tablets, or 30 mL of 10 mg/mL solution in a randomized sequence implementing a Latin Square crossover design, with a 5-day washout between doses.
Changes in urinary glucose excretion, fasting plasma glucose (FPG), insulin, postprandial glucose (PPG), peptide YY (PYY), and glucagon-like peptide-1(GLP-1) were measured at days −1, 1, 6, and 11.

Where [4] appears, read: 150 mg and 300 mg once daily, 28 days.

Regarding `CCOc1ccc(Cc2cc([C@@H]3O[C@H](SC)[C@@H](O)[C@H](O)[C@H]3O)ccc2Cl)cc1` [(2S,3R,4R,5S,6R)-2-(4-chloro-3-(4-ethoxybenzyl)phenyl)-6-(methylthio)tetrahydro-2H-pyran-3,4,5-triol], the “SGLT1 IC50: SGLT2 IC50 ratio” value in data set [1] was “about 20”. Moreover, the “glucosuria compared to placebo” value in data set [2] (150 mg and 300 mg once daily, 28-day dosing period, preliminary data) is “significant and sustained glucosuria”. Besides, in data set [2] (setting [4]), the adverse events result was “generally mild and evenly distributed across all dose groups, including placebo”; the dose-limiting toxicities result is on record as “no evidence of dose-limiting toxicities”. The “glucose tolerance (FIG. 2)” value in data set [2] (150 mg/day and 300 mg/day treatment groups vs placebo) is “greater glucose tolerance than those in the placebo group”. Also, the “plasma glucose levels (FIG. 1)” value in data set [2] (150 mg/day and 300 mg/day treatment groups, upon treatment) was “rapid, statistically significant decrease”. For the same compound, the “post-prandial glucose levels (FIG. 5)” value in data set [2] (150 mg/day and 300 mg/day vs placebo) is reported as “rapid, statistically significant decrease”. Also, the “insulin sensitivity, homeostatic model assessment (HOMA) (FIG. 4)” value in data set [2] (150 mg/day and 300 mg/day vs placebo, day 27) was “improved insulin sensitivity compared to placebo”. The “mean diastolic and systolic blood pressures (FIGS. 8 and 9)” value in data set [2] (150 mg/day and 300 mg/day, after 28 days of dosing, vs placebo) was “decreased mean diastolic and systolic blood pressures”. Besides, in data set [2] (150 mg/day and 300 mg/day, day 28 vs baseline), the “mean arterial pressures (FIG. 10)” value is given as “also decreased”. Also, in data set [2] (150 mg/day and 300 mg/day, four weeks), the “mean HbA1c levels (FIG. 7)” value is given as “marked decrease”. In data set [3], the “FPG and PPG levels” value was “markedly improved”; the “GLP-1 and PYY levels” value is “increased”.
